Patent US6737383B1, “Herbicidal oxadiazolidines” (priority 1999, dated 2004)

Columns and labels:
blackgrass = experiment: Test B pre/postemergence blackgrass; type: in vivo, Alopecurus myosuroides
In short: (§1)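 Response is a visual 0-to-10 score relative to untreated plants, where 0 means no effect and 10 means complete control, taken twelve to sixteen days after application. Treatments went onto soil at planting and onto foliage of 1- to 4-leaf plants, using a surfactant-containing non-phytotoxic solvent.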

surinam grass = experiment: Test B pre/postemergence surinam grass; type: in vivo, Brachiaria decumbens
In short: as §1

cocklebur = experiment: Test B pre/postemergence cocklebur; type: in vivo, Xanthium strumarium
In short: as §1

corn = experiment: Test B pre/postemergence corn; type: in vivo, Zea mays
In short: as §1

crabgrass = experiment: Test B pre/postemergence crabgrass; type: in vivo, Digitaria sanguinalis
In short: as §1

giant foxtail = experiment: Test B pre/postemergence giant foxtail; type: in vivo, Setaria faberii
In short: as §1

morningglory = experiment: Test B pre/postemergence morningglory; type: in vivo, Ipomoea hederacea
In short: as §1

pigweed = experiment: Test B pre/postemergence pigweed; type: in vivo, Amaranthus retroflexus
In short: as §1

rape = experiment: Test B pre/postemergence rape; type: in vivo, Brassica napus
In short: as §1

soybean = experiment: Test B pre/postemergence soybean; type: in vivo, Glycine max
In short: as §1

sugar beet = experiment: Test B pre/postemergence sugar beet; type: in vivo, Beta vulgaris
In short: as §1

velvetleaf = experiment: Test B pre/postemergence velvetleaf; type: in vivo, Abutilon theophrasti
In short: as §1

wheat = experiment: Test B pre/postemergence wheat; type: in vivo, Triticum aestivum
In short: as §1

wild oat = experiment: Test B pre/postemergence wild oat; type: in vivo, Avena fatua
In short: as §1

purple nutsedge = experiment: Test B pre/postemergence purple nutsedge; type: in vivo, Cyperus rotundus
In short: as §1

rice = experiment: Test B flood test rice; type: in vivo, Oryza sativa
In short: (§2)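 Flood test on plants grown to the 2-leaf stage; treated plants kept in greenhouse twelve to sixteen days, then visually rated against controls on a 0 (no effect) to 10 (complete control) scale.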

smallflower flatsedge = experiment: Test B flood test smallflower flatsedge; type: in vivo, Cyperus difformis
In short: as §2

duck salad = experiment: Test B flood test duck salad; type: in vivo, Heteranthera limosa
In short: as §2

bamyardgrass = experiment: Test B flood test barnyardgrass; type: in vivo, Echinochloa crus-galli
In short: as §2

[1] = Postemergence, Rate 31 g/ha, visual rating, scale 0 to 10 (0 no effect, 10 complete control)
[2] = Postemergence, Rate 62 g/ha, scale 0 to 10, 0 is no effect, 10 is complete control
[3] = Postemergence, Rate 125 g/ha, scale of 0 to 10 where 0 is no effect and 10 is complete control
[4] = Postemergence, Rate 250 g/ha, scale of 0 to 10, 0 is no effect, 10 is complete control
[5] = Preemergence, Rate 31 g/ha, visual rating, scale 0 to 10 (0 no effect, 10 complete control)
[6] = Preemergence, Rate 62 g/ha, scale of 0 to 10 where 0 is no effect and 10 is complete control
[7] = Preemergence, Rate 125 g/ha, scale of 0 to 10 where 0 is no effect and 10 is complete control
[8] = Preemergence, Rate 250 g/ha, scale 0 to 10 (0 no effect, 10 complete control)
[9] = Rate 31 g/ha, Pre-emergence section (flood test species), scale 0 to 10
[10] = Rate 62 g/ha, flood test species, Pre-emergence, visual evaluation after twelve to sixteen days
[11] = Rate 125 g/ha, under heading Pre-emergence, flood test species, visual evaluation after twelve to sixteen days
[12] = Rate 250 g/ha, Pre-emergence (flood test species), scale 0 to 10, 0 is no effect, 10 is complete control

CCOP(=O)(OCC)C(C)n1c(=O)on(C(=O)N(c2ccc(Cl)cc2)C(C)C)c1=O (centres unmarked) [Compound 644]
2: Plant response rating, B. signalgrass (surinam grass; [8]) | Crabgrass plant response rating (crabgrass; [5]) | Crabgrass plant response rating (crabgrass; [6]) | Giant foxtail plant response rating (giant foxtail; [7]) | Redroot pigweed plant response rating (pigweed; [1]) | Plant response rating, Redroot pigweed (pigweed; [2]) | Plant response rating, Rape (rape; [8])
0: Blackgrass plant response rating (blackgrass; [1]) | Plant response rating, Blackgrass (blackgrass; [2]) | Blackgrass plant response rating (blackgrass; [3]) | Blackgrass plant response rating (blackgrass; [4]) | Blackgrass plant response rating (blackgrass; [5]) | Blackgrass plant response rating (blackgrass; [6]) | Blackgrass plant response rating (blackgrass; [7]) | Plant response rating, Blackgrass (blackgrass; [8]) | B. signalgrass plant response rating (surinam grass; [1]) | Plant response rating, B. signalgrass (surinam grass; [2]) | Plant response rating, B. signalgrass (surinam grass; [3]) | B. signalgrass plant response rating (surinam grass; [4]) | B. signalgrass plant response rating (surinam grass; [5]) | B. signalgrass plant response rating (surinam grass; [6]) | B. signalgrass plant response rating (surinam grass; [7]) | Cocklebur plant response rating (cocklebur; [1]) | Plant response rating, Cocklebur (cocklebur; [2]) | Cocklebur plant response rating (cocklebur; [3]) | Cocklebur plant response rating (cocklebur; [4]) | Cocklebur plant response rating (cocklebur; [5]) | Cocklebur plant response rating (cocklebur; [6]) | Cocklebur plant response rating (cocklebur; [7]) | Plant response rating, Cocklebur (cocklebur; [8]) | Corn plant response rating (corn; [1]) | Plant response rating, Corn (corn; [2]) | Corn plant response rating (corn; [3]) | Corn plant response rating (corn; [4]) | Corn plant response rating (corn; [5]) | Corn plant response rating (corn; [6]) | Corn plant response rating (corn; [7]) | Plant response rating, Corn (corn; [8]) | Crabgrass plant response rating (crabgrass; [1]) | Plant response rating, Crabgrass (crabgrass; [2]) | Crabgrass plant response rating (crabgrass; [3]) | Crabgrass plant response rating (crabgrass; [4]) | Giant foxtail plant response rating (giant foxtail; [1]) | Plant response rating, Giant foxtail (giant foxtail; [2]) | Giant foxtail plant response rating (giant foxtail; [3]) | Giant foxtail plant response rating (giant foxtail; [4]) | Giant foxtail plant response rating (giant foxtail; [5]) | Giant foxtail plant response rating (giant foxtail; [6]) | Morningglory plant response rating (morningglory; [1]) | Plant response rating, Morningglory (morningglory; [2]) | Morningglory plant response rating (morningglory; [3]) | Morningglory plant response rating (morningglory; [4]) | Morningglory plant response rating (morningglory; [6]) | Morningglory plant response rating (morningglory; [7]) | Redroot pigweed plant response rating (pigweed; [6]) | Redroot pigweed plant response rating (pigweed; [7]) | Plant response rating, Redroot pigweed (pigweed; [8]) | Rape plant response rating (rape; [1]) | Plant response rating, Rape (rape; [2]) | Rape plant response rating (rape; [3]) | Rape plant response rating (rape; [4]) | Rape plant response rating (rape; [6]) | Rape plant response rating (rape; [7]) | Soybean plant response rating (soybean; [1]) | Plant response rating, Soybean (soybean; [2]) | Soybean plant response rating (soybean; [3]) | Soybean plant response rating (soybean; [6]) | Soybean plant response rating (soybean; [7]) | Plant response rating, Soybean (soybean; [8]) | Sugarbeets plant response rating (sugar beet; [1]) | Plant response rating, Sugarbeets (sugar beet; [2]) | Sugarbeets plant response rating (sugar beet; [3]) | Sugarbeets plant response rating (sugar beet; [4]) | Sugarbeets plant response rating (sugar beet; [6]) | Sugarbeets plant response rating (sugar beet; [7]) | Plant response rating, Sugarbeets (sugar beet; [8]) | Velvetleaf plant response rating (velvetleaf; [1]) | Plant response rating, Velvetleaf (velvetleaf; [2]) | Velvetleaf plant response rating (velvetleaf; [3]) | Velvetleaf plant response rating (velvetleaf; [4]) | Velvetleaf plant response rating (velvetleaf; [6]) | Velvetleaf plant response rating (velvetleaf; [7]) | Plant response rating, Velvetleaf (velvetleaf; [8]) | Wheat plant response rating (wheat; [1]) | Plant response rating, Wheat (wheat; [2]) | Wheat plant response rating (wheat; [3]) | Wheat plant response rating (wheat; [4]) | Wheat plant response rating (wheat; [6]) | Wheat plant response rating (wheat; [7]) | Plant response rating, Wheat (wheat; [8]) | Wild oats plant response rating (wild oat; [1]) | Plant response rating, Wild oats (wild oat; [2]) | Wild oats plant response rating (wild oat; [3]) | Wild oats plant response rating (wild oat; [4]) | Wild oats plant response rating (wild oat; [6]) | Wild oats plant response rating (wild oat; [7]) | Plant response rating, Wild oats (wild oat; [8]) | Nutsedge plant response rating (purple nutsedge; [1]) | Nutsedge plant response rating (purple nutsedge; [3]) | Nutsedge plant response rating (purple nutsedge; [6]) | Nutsedge plant response rating (purple nutsedge; [7]) | Rice plant response rating (rice; [9]) | Plant response rating, Rice (0 to 10 scale, 0 is no effect, 10 is complete control) (rice; [10]) | Rice plant response rating (0 to 10 scale, 0 is no effect, 10 is complete control) (rice; [11]) | Rice plant response rating (rice; [12]) | S. Flatsedge plant response rating (smallflower flatsedge; [9]) | Plant response rating, S. Flatsedge (0 to 10 scale, 0 is no effect, 10 is complete control) (smallflower flatsedge; [10]) | S. Flatsedge plant response rating (0 to 10 scale, 0 is no effect, 10 is complete control) (smallflower flatsedge; [11]) | S. Flatsedge plant response rating (smallflower flatsedge; [12]) | Ducksalad plant response rating (duck salad; [9]) | Plant response rating, Ducksalad (0 to 10 scale, 0 is no effect, 10 is complete control) (duck salad; [10]) | Ducksalad plant response rating (0 to 10 scale, 0 is no effect, 10 is complete control) (duck salad; [11]) | Ducksalad plant response rating (duck salad; [12]) | Barnyardgrass plant response rating (bamyardgrass; [9]) | Plant response rating, Barnyardgrass (0 to 10 scale, 0 is no effect, 10 is complete control) (bamyardgrass; [10]) | Barnyardgrass plant response rating (0 to 10 scale, 0 is no effect, 10 is complete control) (bamyardgrass; [11]) | Barnyardgrass plant response rating (bamyardgrass; [12])
3: Plant response rating, Crabgrass (crabgrass; [8]) | Plant response rating, Morningglory (morningglory; [8]) | Redroot pigweed plant response rating (pigweed; [3]) | Redroot pigweed plant response rating (pigweed; [4])
6: Plant response rating, Giant foxtail (giant foxtail; [8])
